Measured values reported in the supplement of paper PMC10307832.

Compound: C1COCCN1CC2=CC(=O)C(=CO2)OCCCCCSC3=C4C=CC(=CC4=NC=C3)C(F)(F)F [EHT 1864] + CS(=O)(=O)N1CCN(Cc2cc3nc(-c4cccc5[nH]ncc45)nc(N4CCOCC4)c3s2)CC1 [Pictilisib] (partner 1 µM)
Experiment: relative viability (nuclei count vs DMSO), 5 days (fraction); higher = more cells survive
Method in brief: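 Nuclei were stained with Hoechst during a one-step fixation (final 0.05% Triton X-100, 1% formaldehyde, 1 ug/ml Hoechst) carried out 5 days after dosing, then counted on 4× images. The cells, lung cancer lines in 1536-well plates, had been dosed by pin tool the day after seeding with one drug alone or a fixed anchor-drug dose plus five library-drug doses (not always all listed) in √10 steps. Relative viability is the nuclei count in treated wells divided by that in vehicle wells, and each value is the median of duplicate plates.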

Row | Cell Line | relative viability (first compound 0.04 µM) | relative viability (first compound 0.4 µM) | relative viability (first compound 1.265 µM) | relative viability (first compound 4 µM) | relative viability (first compound 0.1265 µM)
1 | NCI-H650 | 0.915 | 0.941 | 0.895 | 0.847 | 
2 | NCI-H661 | 0.403 | 0.481 | 0.437 | 0.415 | 0.435
3 | NCI-H727 | 0.482 | 0.419 |  | 0.458 | 0.353
4 | NCI-H838 | 0.501 | 0.548 | 0.435 | 0.428 | 0.353
5 | NCI-H1299 | 0.71 | 0.725 | 0.729 | 0.684 | 0.669
6 | NCI-H1355 | 0.423 | 0.412 | 0.445 | 0.475 | 0.385
7 | NCI-H1395 | 0.66 | 0.58 | 0.59 | 0.588 | 0.557
8 | NCI-H1437 | 0.438 | 0.418 | 0.492 | 0.397 | 0.47
9 | NCI-H1563 | 0.62 | 0.638 | 0.656 | 0.669 | 0.637
10 | NCI-H1650 | 0.597 | 0.579 | 0.548 | 0.442 | 0.351
11 | NCI-H1651 | 0.537 | 0.555 | 0.563 | 0.492 | 0.562
12 | NCI-H1666 | 0.533 | 0.501 | 0.545 | 0.575 | 0.442
13 | NCI-H1703 | 0.222 | 0.26 | 0.251 | 0.266 | 0.245
14 | NCI-H1734 | 0.485 | 0.455 | 0.452 | 0.418 | 0.455
15 | NCI-H1755 | 0.495 | 0.403 | 0.436 | 0.428 | 0.376
16 | NCI-H1792 | 0.259 | 0.27 | 0.288 | 0.348 | 0.302
17 | NCI-H1793 |  | 0.366 | 0.3 | 0.311 | 0.465
18 | NCI-H1915 | 1.02 | 0.963 | 0.998 | 0.905 | 
19 | NCI-H1944 | 0.355 | 0.344 | 0.359 | 0.312 | 

Row | Cell Line | relative viability (first compound 0.04 µM) | relative viability (first compound 0.4 µM) | relative viability (first compound 1.265 µM) | relative viability (first compound 4 µM) | relative viability (first compound 0.1265 µM)
20 | NCI-H1975 | 0.304 | 0.278 | 0.269 | 0.301 | 0.305
21 | NCI-H1993 | 0.88 | 0.788 | 0.866 | 0.894 | 1.04
22 | NCI-H2009 | 0.798 | 0.852 | 0.718 | 0.761 | 0.664
23 | NCI-H2023 | 0.244 | 0.223 | 0.212 | 0.271 | 0.208
24 | NCI-H2085 | 0.555 | 0.47 | 0.448 | 0.428 | 0.524
25 | NCI-H2087 | 0.942 | 0.952 | 0.72 | 0.97 | 0.698
26 | NCI-H2126 | 0.53 | 0.516 | 0.521 | 0.514 | 0.44
27 | NCI-H2170 | 0.371 | 0.374 | 0.309 | 0.275 | 0.272
28 | NCI-H2228 | 0.414 | 0.267 | 0.417 | 0.443 | 0.357
29 | NCI-H2347 | 0.596 | 0.582 | 0.639 | 0.583 | 
30 | NCI-H2405 | 0.447 | 0.456 |  | 0.439 | 0.398
31 | NCI-H3122 | 0.564 | 0.583 | 0.617 | 0.675 | 0.428
32 | PC-3 [JPC-3] | 0.816 | 0.853 | 0.928 | 0.657 | 0.577
33 | PC-14 | 0.664 | 0.686 | 0.637 | 0.582 | 0.59
34 | RERF-LC-KJ | 0.617 | 0.459 | 0.491 | 0.479 | 0.521
35 | SK-LU-1 | 0.619 | 0.619 | 0.542 | 0.583 | 0.519
36 | SK-MES-1 | 0.398 | 0.34 | 0.337 | 0.315 | 0.361
37 | SW 1573 | 0.525 | 0.462 | 0.521 | 0.511 | 0.364
38 | UMC-11 | 0.829 | 0.903 | 0.63 | 0.883 | 0.591
